Measured values published in paper PMC6934184, “Selective DNA-PKcs inhibition extends the therapeutic index of localized radiotherapy and chemotherapy” (The Journal of Clinical Investigation, 2019).

Target: T1, PASK (Homo sapiens, UniProt Q96RG2)
T1 construct: purchased Thermo Fisher Scientific (Life Technologies) SelectScreen
Assay: SelectScreen Z'LYTE
Assay type: biochemical
Procedure, shortened: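 SelectScreen broad panel; activity (Z'LYTE, Adapta) plus binding formats. ATP: Km app for CSF1R Z'LYTE; 10 for CAMK1 Adapta. Readout = % per kinase.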

T1 sequence (Q96RG2 whole entry): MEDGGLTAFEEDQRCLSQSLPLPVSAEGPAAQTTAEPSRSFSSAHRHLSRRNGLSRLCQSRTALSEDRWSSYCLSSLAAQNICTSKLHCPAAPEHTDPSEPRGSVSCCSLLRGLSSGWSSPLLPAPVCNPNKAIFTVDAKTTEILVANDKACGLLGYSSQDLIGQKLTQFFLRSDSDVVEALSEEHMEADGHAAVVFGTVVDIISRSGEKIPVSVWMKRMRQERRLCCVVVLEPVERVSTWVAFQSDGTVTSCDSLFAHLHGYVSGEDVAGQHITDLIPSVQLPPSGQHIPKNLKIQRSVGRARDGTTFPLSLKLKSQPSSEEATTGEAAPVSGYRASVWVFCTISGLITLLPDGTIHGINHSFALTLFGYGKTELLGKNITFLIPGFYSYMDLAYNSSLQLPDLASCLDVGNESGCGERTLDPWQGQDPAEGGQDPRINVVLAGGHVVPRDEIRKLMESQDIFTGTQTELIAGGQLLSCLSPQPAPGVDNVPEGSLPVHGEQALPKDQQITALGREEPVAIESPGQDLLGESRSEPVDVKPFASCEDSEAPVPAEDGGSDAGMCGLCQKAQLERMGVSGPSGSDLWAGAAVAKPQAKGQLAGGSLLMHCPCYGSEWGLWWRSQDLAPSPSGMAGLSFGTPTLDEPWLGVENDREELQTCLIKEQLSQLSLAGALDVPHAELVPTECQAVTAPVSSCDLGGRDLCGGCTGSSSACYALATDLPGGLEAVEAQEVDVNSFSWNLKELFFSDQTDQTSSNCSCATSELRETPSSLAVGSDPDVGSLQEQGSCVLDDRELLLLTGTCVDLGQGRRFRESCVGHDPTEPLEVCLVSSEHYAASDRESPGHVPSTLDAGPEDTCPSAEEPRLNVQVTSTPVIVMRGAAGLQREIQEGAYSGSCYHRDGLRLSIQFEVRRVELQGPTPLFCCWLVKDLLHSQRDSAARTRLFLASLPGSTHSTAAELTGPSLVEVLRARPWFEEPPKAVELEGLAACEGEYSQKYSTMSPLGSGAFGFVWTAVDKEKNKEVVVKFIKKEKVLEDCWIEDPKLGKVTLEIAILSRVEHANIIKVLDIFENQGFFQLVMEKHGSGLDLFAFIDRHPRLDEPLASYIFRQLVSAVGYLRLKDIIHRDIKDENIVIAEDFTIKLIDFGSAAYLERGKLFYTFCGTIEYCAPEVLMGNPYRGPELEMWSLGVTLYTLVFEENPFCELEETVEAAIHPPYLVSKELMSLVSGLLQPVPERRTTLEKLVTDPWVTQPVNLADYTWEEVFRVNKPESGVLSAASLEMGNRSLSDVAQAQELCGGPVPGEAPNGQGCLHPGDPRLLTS

SMILES: CN(C(=O)CN1CCOCC1)c1ccc2sc3c(-c4cccc5c(=O)cc(N6CC7CCC(C6)O7)oc45)cccc3c2c1 [NU5455]
- inhibition at 1 µM: 2.3%
